The record followed here is patent publication US9403797B2, “5-(pyridin-2-yl-amino)-pyrazine-2-carbonitrile compounds and their therapeutic use” (Cancer Research Technology Limited, priority 2011, dated 2016).

A word on the IC50: it is the concentration that inhibits the measured activity by half.

The structures appear in SMILES notation. Read-outs that look alike come from different tables or passages of the source.

Series [1] concerns HT29 human colon carcinoma xenograft. In words: In Vivo Study 2: combination with gemcitabine in HT29 human colon carcinoma xenograft. Further details: species or system mouse. Particulars: for Tumour growth inhibition relative to controls / T/C vs. vehicle controls: day 24; for T/C vs. vehicle controls: tumour volumes; for Mean tumour volume (cm^3, mean ± SEM): day 24 after start of therapy, PAPC-A-01 75 mg/kg p.o., gemcitabine 100 mg/kg i.v. As to the method:
In Vivo Study 2: PAPC-A-01 in Combination with Gemcitabine in HT29 Human Colon Carcinoma Xenograft
Animals weighed 20.3±2.0 g at the start of the study. Handing and all experimental procedures were performed under sterile conditions in laminar flow hoods in accordance with UK Home Office, national and local ethical guidelines.
HT29 colon carcinoma cells from the American Type Culture Collection (ATCC, LGC Promochem, Middesex, UK) were harvested from tissue culture flasks and injected subcutaneously in the right flanks of mice (3 million cells per site). Once tumours were established (mean diameter 0.55±0.05 cm) mice were randomised to treatment groups (n=6) to receive (a) test compound (PAPC-A-01) (75 mg/kg), (b) gemcitabine (100 mg/kg), (c) a combination (PAPC-A-01) (75 mg/kg) and gemcitabine (100 mg/kg), or (d) relevant vehicles.
Clinical grade gemcitabine hydrochloride (GEMZAR, Eli Lilly, Newmarket, UK) was reconstituted in sterile 0.9% sodium chloride and aliquots frozen at −20° C. Gemcitabine was administered intravenously once weekly via a lateral tail vein on days 0 (day 5 after tumour cell implantation), 7 and 14. Test compound (PAPC-A-01) was dissolved in 10% DMSO and diluted out in 5% Tween 20, 85% saline. Test compound (PAPC-A-01) was administered by oral gavage on days 1, 2, 8, 9, 15 and 16. The control animals received both vehicles by the appropriate route on the designated days. The compounds were administered in a volume of 100 μL per 10 g body weight.
Animals were observed daily and body weights and tumours measured three times weekly. Two perpendicular tumour diameters were used to calculate volumes using the formula: V=4/3π[(d1+d2)/4]^3.
T/C values (volumes of treated tumours vs. controls) were calculated with respect to vehicle control tumours or those treated with gemcitabine alone, expressed as a percentage.
Background: A xenograft is tissue or cells of one species grown in another, often human tumour cells in immunodeficient mice.

Series [2] addresses CHK1 (Homo sapiens (Human), UniProt O14757). Put plainly: Inhibitor potency vs. CHK1 (Assay 1A DELFIA or Assay 1B Caliper format). The class given is biochemical. How it is done: Assay 1A: Determination of Inhibitor Potency vs. CHK1 in DELFIA Assay Format
CHK1 kinase function was measured in a DELFIA® assay in order to monitor phosphorylation of a CDC25C peptide using a specific phospho antibody. […] The reaction mixture was incubated for 30 minutes at room temperature and then stopped by the addition of buffer (125 μL) containing 40 mM EDTA, 0.05% Tween 20, 0.1% BSA in TBS (10× concentrate, Sigma). An aliquot (100 μL) of the stopped reaction mixture was transferred to a black neutravidin-coated plate (Perbio) and incubated for 1 hour on a shaker (Titertek, Flow Laboratories) at room temperature. […] The plates were washed a further four times with wash buffer before the addition of enhancement solution (100 μL/well, PerkinElmer Life Sciences).
Assay 1B: Determination of Inhibitor Potency Vs. CHK1 in Caliper Assay Format
CHK1 kinase activity was measured in a microfluidic assay that monitors the separation of a phosphorylated product from its substrate. […] For each test compound a 50 μM stock concentration in 100% DMSO was used. […] The plate was sealed and centrifuged (1 minutes, 1000 rpm) before incubation for one hour at room temperature. The reaction was stopped by the addition of separation buffer (90 μL). […] IC50 values were calculated in GraphPad Prism5 using a non linear regression fit of the log (inhibitor) vs. response with variable slope equation.

Series [3] has as its target CHK2 (Homo sapiens (Human), UniProt O96017). Put plainly: Inhibitor selectivity for inhibition of CHK1 vs. CHK2 (Assay 2, CHK2 DELFIA assay). To be noted: CHK2 IC50/CHK1 IC50. The class given is biochemical. How it is done:
The plates were washed a further four times with wash buffer before the addition of enhancement solution (100 μL/well, PerkinElmer Life Sciences).

In series [4] the test system is TH-MYCN neuroblastoma. Put plainly: In Vivo Study 1: transgenic MYCN-driven neuroblastoma model. Further details: species or system mouse. As to the method:
In Vivo Study 1: PAPC-A-01 in Transgenic MYCN-Driven Neuroblastoma Model
Spontaneous neuroblastomas arising in hemizygous mice transgenic for TH-MYCN (human MYCN under the control of the rat tyrosine hydroxylase promoter) were detected by abdominal palpation. Sequential animals with well-established tumours (30-70 days of age) were randomised to receive either test compound (PAPC-A-01) or vehicle until 8-9 mice per group were accrued. The test compound (PAPC-A-01) was administered as a single agent at 100 mg/kg p.o. daily for 7 consecutive days by oral gavage (100 μL/10 g body weight) and controls received an equivalent volume of vehicle (10% DMSO, 5% Tween 20, 85% saline). Neuroblastoma size was assessed by MRI and by the mass of tumours dissected from the abdominal cavity at the end of therapy.
^1H MRI was performed on a 7T Bruker horizontal bore microimaging system (Bruker Instruments, Ettlingen, Germany) using a 3 cm birdcage coil. Anaesthesia was induced a combination of fentanyl citrate (0.315 mg/mL) plus fluanisone (10 mg/mL) (Hypnorm, Janssen Pharmaceutical, Oxford, UK) and midazolam (5 mg/mL) (Roche, Welwyn Garden City, UK) and water (1:1:2). Animal body temperature was maintained by a warm air blower through the magnet bore.
Anatomical T2-weighted coronal and transverse images were acquired from twenty contiguous 1 mm-thick coronal slices through the mouse abdomen, using a rapid acquisition with refocused echoes (RARE) sequence with 4 averages of 128 phase encoding steps over a 3×3 cm field of view, two echoes of 36 and 132 ms, a TR of 4.5 s and a RARE factor of 8. Following MRI, the mice were left to recover on a heat mat for 24 hours. Tumour volumes were measured using segmentation from regions of interest drawn on every slice from the coronal T2 weighted images containing tumour using in-house software (ImageView, working under IDL, ITT, Boulder, Colo., USA).

Series [5] in a line: in vivo. Particulars: female, BALB/c, mouse, Oral bioavail. (plasma concentration, 1 hour following 10 mg/kg p.o.).
Series [6] has as its system HT29 cells. Put plainly: Mitosis Inhibition Assay (MIA), checkpoint abrogation. Particulars: Homo sapiens, HT-29, read-out: MIA IC50.
Series [7] can be described thus: Comparative oral bioavailability by limited sampling in vivo pharmacokinetics. Particulars: female, BALB/c, mouse, plasma, 10 mg/kg, Oral bioavail. (plasma concentration, 1 hour following 10 mg/kg p.o.), female BALB/c mice, expressed relative to 10 mg/kg p.o.
[8] abbreviates: Assay 1A (DELFIA) or Assay 1B (Caliper), read-out: CHK1 IC50.

Chain of CHK1 (O14757 whole entry): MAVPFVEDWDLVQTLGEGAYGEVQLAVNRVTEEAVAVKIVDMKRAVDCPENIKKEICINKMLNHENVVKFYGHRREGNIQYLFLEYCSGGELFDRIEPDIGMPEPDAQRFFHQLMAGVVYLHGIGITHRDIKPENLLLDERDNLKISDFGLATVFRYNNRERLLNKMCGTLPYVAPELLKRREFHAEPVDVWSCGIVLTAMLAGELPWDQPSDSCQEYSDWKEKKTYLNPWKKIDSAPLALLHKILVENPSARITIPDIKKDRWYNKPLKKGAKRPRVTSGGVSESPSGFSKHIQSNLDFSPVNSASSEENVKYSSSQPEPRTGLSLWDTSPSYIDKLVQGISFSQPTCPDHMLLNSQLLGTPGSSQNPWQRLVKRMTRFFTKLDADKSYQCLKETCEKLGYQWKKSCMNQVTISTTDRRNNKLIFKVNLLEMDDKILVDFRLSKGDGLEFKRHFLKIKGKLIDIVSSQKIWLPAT
Chain of CHK2 (O96017 whole entry): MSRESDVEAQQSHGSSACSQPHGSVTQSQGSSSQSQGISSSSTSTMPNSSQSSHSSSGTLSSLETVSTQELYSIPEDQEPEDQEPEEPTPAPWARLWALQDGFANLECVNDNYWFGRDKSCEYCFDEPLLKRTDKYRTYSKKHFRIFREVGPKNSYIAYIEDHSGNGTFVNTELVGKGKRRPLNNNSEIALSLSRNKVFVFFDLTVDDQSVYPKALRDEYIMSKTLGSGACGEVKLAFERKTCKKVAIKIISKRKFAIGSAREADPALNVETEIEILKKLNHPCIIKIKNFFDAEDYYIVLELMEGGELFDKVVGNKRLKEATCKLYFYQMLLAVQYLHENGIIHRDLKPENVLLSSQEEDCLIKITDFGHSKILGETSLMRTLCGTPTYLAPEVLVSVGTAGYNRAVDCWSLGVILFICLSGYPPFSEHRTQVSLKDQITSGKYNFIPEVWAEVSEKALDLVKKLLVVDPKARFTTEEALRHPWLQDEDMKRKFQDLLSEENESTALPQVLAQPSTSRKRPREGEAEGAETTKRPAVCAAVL

As for `Nc1ccn([C@@H]2O[C@H](CO)[C@@H](O)C2(F)F)c(=O)n1` [Gemcitabine, reference compound], in series [1], the “Tumour growth inhibition relative to controls” value is “approximately 20%”; the “T/C vs. vehicle controls” value came out at 80.8%; the “Mean tumour volume (cm^3, mean ± SEM)” value came to 0.888 ± 0.188 cm^3.
As for `COc1cc(Nc2cnc(C#N)c(O[C@H](C)CN(C)C)n2)ncc1-c1cnn(C)c1` [PAPC-A-01, (R)-3-((1-(Dimethylamino)propan-2-yl)oxy)-5-((4-methoxy-5-(1-methyl-1H-pyrazol-4-yl)pyridin-2-yl)amino)pyrazine-2-carbonitrile], the IC50 in series [2] is less than 20 nM. Besides, in series [2] (setting [8]), the half-inhibitory concentration (IC50) came to 6 nM. Further, the “CHK1 vs. CHK2 selectivity” value in series [3] is 540-fold. Moreover, the “T/C (tumour weight)” value in series [4] (100 mg/kg p.o. daily for 7 days) is 13.4%. In series [4] (7 day treatment period, 100 mg/kg p.o. daily), the “MR imaging in individual mice, pre-treatment and on day 7” value is recorded as “tumour regression”. The “Mean weight of tumours at the end of the study” value in series [4] (mean±SD, 100 mg/kg p.o. daily for 7 days, control 2.1±0.7 g) came to 0.3 ± 0.2 g. Further, the “Tumour volume (MRI)” value in series [4] (one mouse, following 7 days treatment, 100 mg/kg p.o. daily, pre-treatment volume 1960 mm^3) is on record as 417 mm^3. In addition, in series [1], the “Tumour growth inhibition relative to controls” value was “no growth inhibition”; the “T/C vs. vehicle controls” value came out at 101.4%; the “Mean tumour volume (cm^3, mean ± SEM)” value is given as 1.114 ± 0.257 cm^3.
In the case of `C[C@H](CN(C)C)Oc1nc(Nc2cc(N(C)C)c(-c3cnn(C)c3)cn2)cnc1C#N` [PAPC-A-03, (R)-5-((4-(Dimethylamino)-5-(1-methyl-1H-pyrazol-4-yl)pyridin-2-yl)amino)-3-((1-(dimethylamino)propan-2-yl)oxy)pyrazine-2-carbonitrile], the IC50 in series [2] (setting [8]) is less than 20 nM.
Consider `CNc1cc(Nc2cnc(C#N)c(O[C@H](C)CN(C)C)n2)ncc1C#CC(C)(C)O` [PAPC-A-08, (R)-3-((1-(Dimethylamino)propan-2-yl)oxy)-5-((5-(3-hydroxy-3-methylbut-1-yn-1-yl)-4-(methylamino)pyridin-2-yl)amino)pyrazine-2-carbonitrile], for which, in series [2], the half-maximal inhibitory concentration (IC50) was less than 20 nM.
For `CNc1cc(Nc2cnc(C#N)c(O[C@H](C)CN(C)C)n2)ncc1C1CC1` [PAPC-A-09, (R)-5-((5-Cyclopropyl-4-(methylamino)pyridin-2-yl)amino)-3-((1-(dimethylamino)propan-2-yl)oxy)pyrazine-2-carbonitrile], the concentration at 1 h in series [5] was not below 10 nM.
In turn, `CNc1cc(Nc2cnc(C#N)c(O[C@H](C)CN(C)C)n2)ncc1C(=O)OC` [PAPC-A-10, (R)-Methyl 6-((5-cyano-6-((1-(dimethylamino)propan-2-yl)oxy)pyrazin-2-yl)amino)-4-(methylamino)nicotinate] came in with an IC50 in series [2] of less than 20 nM.
Same read-out and setting: the same measure for `COc1cc(Nc2cnc(C#N)c(O[C@@H]3CCNC3)n2)ncc1-c1cnn(C)c1` [PAPC-B-01, (R)-5-((4-Methoxy-5-(1-methyl-1H-pyrazol-4yl)pyridin-2-yl)amino)-3-(pyrrolidin-3-yloxy)pyrazine-2-carbonitrile]: less than 20 nM; for `COc1cc(Nc2cnc(C#N)c(O[C@@H]3CCN(C)C3)n2)ncc1-c1cnn(C)c1` [PAPC-B-02, (R)-5-((4-Methoxy-5-(1-methyl-1H-pyrazol-4-yl)pyridin-2-yl)amino)-3-((1-methylpyrrolidin-3-yl)oxy)pyrazine-2-carbonitrile]: less than 20 nM.
As to `CNc1cc(Nc2cnc(C#N)c(O[C@@H]3CCNC3)n2)ncc1-c1cnn(C)c1` [PAPC-B-03, (R)-5-((5-(1-Methyl-1H-pyrazol-4-yl)-4-(methylamino)pyridin-2-yl)amino)-3-(pyrrolidin-3-yloxy)pyrazine-2-carbonitrile], the IC50 in series [6] is less than 500 nM.
For the compound `CNc1cc(Nc2cnc(C#N)c(O[C@H]3CCNC3)n2)ncc1-c1cnn(C)c1` [PAPC-B-04, (S)-5-((5-(1-Methyl-1H-pyrazol-4-yl)-4-(methylamino)pyridin-2-yl)amino)-3-(pyrrolidin-3-yloxy)pyrazine-2-carbonitrile], the IC50 in series [6] was less than 500 nM.
For the compound `CNc1cc(Nc2cnc(C#N)c(O[C@@H]3CCN(C)C3)n2)ncc1-c1cnn(C)c1` [PAPC-B-05, (R)-5-((5-(1-Methyl-1H-pyrazol-4-yl)-4-(methylamino)pyridin-2-yl)amino)-3-((1-methylpyrrolidin-3-yl)oxy)pyrazine-2-carbonitrile], the half-maximal inhibitory concentration (IC50) in series [2] is less than 20 nM.
For `CNc1cc(Nc2cnc(C#N)c(O[C@H]3CCN(C)C3)n2)ncc1-c1cnn(C)c1` [PAPC-B-06, (S)-5-((5-(1-Methyl-1H-pyrazol-4-yl)-4-(methylamino)pyridin-2-yl)amino)-3-((1-methylpyrrolidin-3-yl)oxy)pyrazine-2-carbonitrile], in series [2], the IC50 was less than 20 nM. In series [5], the concentration at 1 h was not below 10 nM.
With `CNc1cc(Nc2cnc(C#N)c(O[C@@H]3CCNC3)n2)ncc1C#CC(C)(C)O` [PAPC-B-08, (R)-5-((5-(3-Hydroxy-3-methylbut-1-yn-1-yl)-4-(methylamino)pyridin-2-yl)amino)-3-(pyrrolidin-3-yloxy)pyrazine-2-carbonitrile], in series [2] (setting [8]), the concentration for half-maximal inhibition (IC50) was less than 20 nM. For the same compound, the concentration at 1 h in series [7] is not below 10 nM.
In turn, `COC(=O)c1cnc(Nc2cnc(C#N)c(O[C@@H]3CCNC3)n2)cc1N(C)C` [PAPC-B-11, (R)-Methyl 6-((5-cyano-6-(pyrrolidin-3-yloxy)pyrazin-2-yl)amino)-4-(dimethylamino)nicotinate] registered an IC50 in series [2] of less than 20 nM.
